Experimental data published in paper PMC3335777 (Journal of the American Chemical Society, 2012).
Like-named read-outs stand apart in the source and are kept apart here.

Columns and labels:
FabF [1] = biological target: T1, FabF (Staphylococcus aureus, UniProt Q8NXE1); type: biochemical
T1 sequence (Q8NXE1 1-414): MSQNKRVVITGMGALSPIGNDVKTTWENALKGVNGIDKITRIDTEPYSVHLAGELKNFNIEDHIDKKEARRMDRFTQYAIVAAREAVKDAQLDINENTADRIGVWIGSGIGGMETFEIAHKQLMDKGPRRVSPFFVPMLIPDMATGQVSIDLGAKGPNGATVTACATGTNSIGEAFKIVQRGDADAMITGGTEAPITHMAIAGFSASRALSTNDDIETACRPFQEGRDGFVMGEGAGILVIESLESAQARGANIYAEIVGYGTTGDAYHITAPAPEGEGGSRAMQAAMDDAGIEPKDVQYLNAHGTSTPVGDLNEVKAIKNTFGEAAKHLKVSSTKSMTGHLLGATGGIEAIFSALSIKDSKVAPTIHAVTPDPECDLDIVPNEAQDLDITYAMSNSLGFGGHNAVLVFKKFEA

FabF [2] = biological target: T1, FabF; assay: […]-malonyl-CoA FASII elongation assay; type: biochemical

Substance: fasamycin A [compound 1]
- IC50 (FabF [1]): 50 µg/mL

Substance: fasamycin B [compound 2]
- IC50 (FabF [2]): 80 µg/mL
